Experimental data taken from patent US7671054B1, “Reverse-turn mimetics and method relating thereto” (Choongwae Pharma Corporation, priority 2001, dated 2010).
Like-named read-outs stand apart in the source and are kept apart here.

Tested on: TCF4/β-catenin transcription (TOPFlash) in SW480 cells
Experiment: Reporter gene assay (TOPFlash luciferase)
Type: cell-based
Conditions: Homo sapiens
Method: SW480 cells were transfected with the usage of Superfect™ transfect reagent (Qiagen, 301307). Cells were trypsinized briefly 1 day before transfection and plated on 6 well plate (5×10^5 cells/well) so that they were 50-80% confluent on the day of transfection.
Four microgram (TOPFlash) and one microgram (pRL-null) of DNAs were diluted in 150 μl of serum-free medium, and 30 μl of Superfect™ transfect reagent was added. The DNA-Superfect mixture was incubated at room temperature for 15 min, and then, 1 ml of 10% FBS DMEM was added to this complex for an additional 3 hours of incubation. While complexes were forming, cells were washed with PBS twice without antibiotics.
The DNA-Superfect™ transfect reagent complexes were applied to the cells before incubating at 37° C. at 5% CO2 for 3 hours. After incubation, recovery medium with 10% FBS was added to bring the final volume to 1.18 ml. After 3 hours incubation, the cells were harvested and reseeded to 96 well plate (3×10^4 cells/well). After overnight incubation at 37° C. at 5% CO2, the cells were treated with Compound A for 24 hours. Finally, the activity was checked by means of luciferase assay (Promega, E1960).

[1] = SW480, Table 4, Reporter gene assay as described in Example 6, read-out: IC50

| SMILES | IC50 [1] [µM] | IC50 (SW480) [µM] |
| --- | --- | --- |
| CN1CC(=O)N2[C@@H](Cc3ccc(O)cc3)C(=O)N(Cc3ccc(Cl)cc3)C[C@@H]2N1C(=O)NCc1ccccc1 [Compound 28] | 7.5 |  |
| CC(c1cc(N(C)C)cc(C(F)(F)F)c1)N1C[C@H]2N(C(=O)CN(C)N2C(=O)NCc2ccccc2)[C@@H](Cc2ccc(O)cc2)C1=O (stereo partly drawn) [Compound 60] | 6.9 ± 1.7 |  |
| CN1CC(=O)N2[C@@H](Cc3ccc(O)cc3)C(=O)N(Cc3ccc(F)cc3C(F)(F)F)C[C@@H]2N1C(=O)NCc1ccccc1 [Compound 44] | 1.3 |  |
| CN1CC(=O)N2[C@@H](Cc3ccc(O)cc3)C(=O)N(Cc3cccc4nnn(C)c34)C[C@@H]2N1C(=O)NCc1ccccc1 [Compound 75] | 50.5 ± 18.4 |  |
| C=CCN1CC(=O)N2[C@@H](Cc3ccc(O)cc3)C(=O)N(Cc3ccc(Cl)c(N(C)C)c3)C[C@@H]2N1C(=O)NCc1ccccc1 [Compound 129] | 2.4 ± 0.5 |  |
| CN1CC(=O)N2[C@@H](Cc3ccc(O)cc3)C(=O)N(Cc3ccc(F)cc3F)C[C@@H]2N1C(=O)NCc1ccc(F)cc1 [Compound 200] | 8.6 ± 0.4 |  |
| C#CCN1CC(=O)N2[C@@H](Cc3ccc(O)cc3)C(=O)N(Cc3ccc4ncsc4c3)C[C@@H]2N1C(=O)NCc1ccccc1 [Compound 141] | 1.8 ± 0.3 |  |
| C=CCN1CC(=O)N2[C@@H](Cc3ccc(O)cc3)C(=O)N(Cc3cccc4scnc34)C[C@@H]2N1C(=O)NCc1ccc(Cl)c(Cl)c1 [Compound 210] | 0.9 ± 0.1 |  |
| C=CCN1CC(=O)N2[C@@H](Cc3ccc(O)cc3)C(=O)N(Cc3ccc(C)c(N4CCOCC4)c3)C[C@@H]2N1C(=O)NCc1ccccc1 [Compound 133] | 3.5 ± 0.7 |  |
| [2H]c1cc(O)cc([2H])c1C[C@H]1C(=O)N(Cc2cccc3ccccc23)C[C@H]2N1C(=O)CN(C)N2C(=O)NCc1ccccc1 [Compound 172] | 2.9 ± 0.4 |  |
| C=CCN1CC(=O)N2[C@@H](Cc3ccc(O)cc3)C(=O)N(Cc3ccc(F)c4scnc34)C[C@@H]2N1C(=O)NCc1ccccc1 [Compound 223] | 0.6 ± 0.1 |  |
| C=CCN1CC(=O)N2[C@@H](Cc3ccc(O)cc3)C(=O)N(Cc3cc(N(C)C(C)C)cc(C(F)(F)F)c3)C[C@@H]2N1C(=O)NCc1ccccc1 [Compound 156] | 13.3 ± 1.6 |  |
| C=CCN1CC(=O)N2[C@@H](Cc3ccc(O)cc3)C(=O)N(Cc3cccc4sc(N)nc34)C[C@@H]2N1C(=O)NCc1ccccc1 [Compound 225] | 0.1 ± 0.1 |  |
| CCCN1CC(=O)N2[C@@H](Cc3ccc(O)cc3)C(=O)N(Cc3cccc4cccnc34)C[C@@H]2N1C(=O)NCc1ccccc1 [Compound 122] | 2.1 ± 0.4 |  |
| C=CCN1CC(=O)N2[C@@H](Cc3ccc(OP(=O)(O)O)cc3)C(=O)N(Cc3ccccc3)C[C@@H]2N1C(=O)NCc1ccccc1 [Compound 174] | 1 ± 0.1 |  |
| C=CCN1CC(=O)N2[C@@H](Cc3ccc(O)cc3)C(=O)N(Cc3ccc(F)cc3F)C[C@@H]2N1C(=O)NCc1ccccc1 [Compound 143] | 1.3 ± 0.2 |  |
| CN(C)CCn1ncc2cccc(CN3C[C@H]4N(C(=O)CN(C)N4C(=O)NCc4ccccc4)[C@@H](Cc4ccc(O)cc4)C3=O)c21 [Compound 87] | 8.1 ± 0.8 |  |
| C=CCN1CC(=O)N2[C@@H](Cc3ccc(O)cc3)C(=O)N(Cc3ccc(OC)cc3)C[C@@H]2N1C(=O)NCc1ccccc1 [Compound 208] | 1.6 ± 0.4 |  |
| CN1CC(=O)N2[C@@H]([C@H](O)c3ccc(O)cc3)C(=O)N(Cc3ccc(F)cc3F)C[C@@H]2N1C(=O)NCc1ccccc1 [Compound 113] | 7.3 ± 1.1 |  |
| CC(C)N1CC(=O)N2[C@@H](Cc3ccc(O)cc3)C(=O)N(Cc3ccc(F)cc3F)C[C@@H]2N1C(=O)NCc1ccccc1 [Compound 176] | 4 ± 0.4 |  |
| CN(Cc1ccccc1)c1cccc(CN2C[C@H]3N(C(=O)CN(C)N3C(=O)NCc3ccccc3)[C@@H](Cc3ccc(O)cc3)C2=O)c1 [Compound 79] | 16.5 ± 4.8 |  |
| C=CCN1CC(=O)N2[C@@H](Cc3ccc(O)cc3)C(=O)N(Cc3cccc4c3OCCO4)C[C@@H]2N1C(=O)NCc1ccc(Cl)c(Cl)c1 [Compound 204] | 1.9 ± 0.1 |  |
| C=CCN1CC(=O)N2[C@@H](Cc3ccc(OC(=O)NCCN(C)C)cc3)C(=O)N(Cc3ccc(F)cc3F)C[C@@H]2N1C(=O)NCc1ccccc1 [Compound 173] |  | 1.8 ± 0.2 |
| C=CCN1CC(=O)N2[C@@H](Cc3ccc(NC=O)cc3)C(=O)N(Cc3ccc(F)cc3F)C[C@@H]2N1C(=O)NCc1ccccc1 [Compound 159] | 2.7 ± 0.2 |  |
| CN1CC(=O)N2C(CN(Cc3cccc(Cl)c3)C(=O)[C@@H]2Cc2ccc(O)cc2)N1C(=O)NCc1ccccc1 (stereo partly drawn) [Compound 18] | 3.3 |  |
| CCCN1CC(=O)N2[C@@H](Cc3ccc(O)cc3)C(=O)N(Cc3ccc(F)cc3F)C[C@@H]2N1C(=O)NCc1ccccc1 [Compound 157] | 4.2 ± 0.1 |  |
| CN1CC(=O)N2[C@@H](Cc3ccc(O)cc3)C(=O)N(Cc3cccc4c3nnn4C)C[C@@H]2N1C(=O)NCc1ccccc1 [Compound 76] | 10.7 ± 2.5 |  |

| SMILES | IC50 [1] [µM] | IC50 (SW480) [µM] |
| --- | --- | --- |
| COc1ccccc1CN1C[C@H]2N(C(=O)CN(C)N2C(=O)NCc2ccccc2)[C@@H](Cc2ccc(O)cc2)C1=O [Compound 26] | 7.1 |  |
| CN1CC(=O)N2[C@@H](Cc3ccc(O)cc3)C(=O)N(Cc3ccc(F)cc3F)[C@@H](COC=O)[C@@H]2N1C(=O)NCc1ccccc1 [Compound 81] | 66.1 ± 6.8 |  |
| CN1CC(=O)N2[C@@H](Cc3ccc(O)cc3)C(=O)N(Cc3ccccc3SC(F)(F)F)C[C@@H]2N1C(=O)NCc1ccccc1 [Compound 31] | 11.9 |  |
| CN1CC(=O)N2[C@@H](Cc3ccc(O)cc3)C(=O)N(Cc3cccc4[nH]ncc34)C[C@@H]2N1C(=O)NCc1ccccc1 [Compound 70] | 8.8 ± 1.9 |  |
| C=CCN1CCN2[C@@H](Cc3ccc(O)cc3)C(=O)N(Cc3ccc(OC)cc3OC)C[C@@H]2N1C(=O)NCc1ccccc1 [Compound 213] | 1.7 ± 0.3 |  |
| CN1CC(=O)N2[C@@H](Cc3ccc(O)cc3)C(=O)N(Cc3ccc4ncsc4c3)C[C@@H]2N1C(=O)NCc1ccccc1 [Compound 77] | 7.2 ± 2.5 |  |
| CN(c1cccc(CN2C[C@H]3N(C(=O)CN(C)N3C(=O)NCc3ccccc3)[C@@H](Cc3ccc(O)cc3)C2=O)c1)C1CC1 [Compound 57] | 9.4 ± 1.5 |  |
| Cc1cc(C)c(N(C)C)c(CN2C[C@H]3N(C(=O)CN(C)N3C(=O)NCc3ccccc3)[C@@H](Cc3ccc(O)cc3)C2=O)c1 [Compound 51] | 4.8 |  |
| C=CCN1CC(=O)N2[C@@H](Cc3ccc(O)cc3)C(=O)N(Cc3cccc4sc(-c5ccccc5)nc34)C[C@@H]2N1C(=O)NCc1ccccc1 [Compound 221] | 4.7 ± 3.5 |  |
| C#CCN1CC(=O)N2[C@@H](Cc3ccc(O)cc3)C(=O)N(Cc3cccc(N4CCOCC4)c3)C[C@@H]2N1C(=O)NCc1ccccc1 [Compound 118] | 0.8 ± 0.1 |  |
| C[C@H]1[C@@H]2N(C(=O)CN(C)N2C(=O)NCc2ccccc2)[C@@H](Cc2ccc(O)cc2)C(=O)N1Cc1ccc(F)cc1F [Compound 69] | 1.4 ± 0.7 |  |
| C=CCN1CC(=O)N2[C@@H](Cc3ccc(O)cc3)C(=O)N(Cc3ccccc3)C[C@@H]2N1C(=O)NCc1ccc(Cl)c(Cl)c1 [Compound 207] | 1.5 ± 0.1 |  |
| CN1CC(=O)N2[C@@H](Cc3ccc(O)cc3)C(=O)N(Cc3ccc4ccccc4c3)C[C@@H]2N1C(=O)NCc1ccccc1 [Compound 24] | 5 |  |
| C=CCN1CC(=O)N2[C@@H](Cc3ccc(O)cc3)C(=O)N(Cc3cccc(N4CCOCC4)c3)C[C@@H]2N1C(=O)NCc1ccccc1 [Compound 127] | 1.8 ± 0.2 |  |
| C=CCN1CC(=O)N2[C@@H](Cc3ccc(O)cc3)C(=O)N(Cc3cccc(N4CCCC4)c3)C[C@@H]2N1C(=O)NCc1ccccc1 [Compound 154] | 3.2 ± 0.4 |  |
| C#CCN1CC(=O)N2[C@@H](Cc3ccc(O)cc3)C(=O)N(Cc3cc(F)c(F)cc3N(C)C)C[C@@H]2N1C(=O)NCc1ccccc1 [Compound 108] | 1.6 ± 0.1 |  |
| C#CCN1CC(=O)N2[C@@H](Cc3ccc(O)cc3)C(=O)N(Cc3ccc4c(c3)OCCN4C)C[C@@H]2N1C(=O)NCc1ccccc1 [Compound 146] | 16.7 ± 1.4 |  |
| C=CCN1CC(=O)N2[C@@H](Cc3ccc(O)cc3)C(=O)N(Cc3ccc4[nH]nnc4c3)C[C@@H]2N1C(=O)NCc1ccccc1 [Compound 136] | 28 ± 2.9 |  |
| C=CCN1CC(=O)N2[C@@H](Cc3ccc(O)cc3)C(=O)N(Cc3cccc4sc(C(=O)OCC)nc34)C[C@@H]2N1C(=O)NCc1ccccc1 [Compound 224] | 5.4 ± 1 |  |
| CN(C)Cc1cccc(CN2C[C@H]3N(C(=O)CN(C)N3C(=O)NCc3ccccc3)[C@@H](Cc3ccc(O)cc3)C2=O)c1 [Compound 116] | 8 ± 0.7 |  |
| C=C(C)CN1CC(=O)N2[C@@H](Cc3ccc(O)cc3)C(=O)N(Cc3ccc(Cl)c4cccnc34)C[C@@H]2N1C(=O)NCc1ccccc1 [Compound 149] | 31 ± 6.4 |  |
| C=CCN1CC(=O)N2[C@@H](Cc3ccc(O)cc3)C(=O)N(Cc3cccc(OCCN4CCOCC4)c3)C[C@@H]2N1C(=O)NCc1ccccc1 [Compound 132] | 2.3 ± 0.5 |  |
| C#CCN1CC(=O)N2[C@@H](Cc3ccc(O)cc3)C(=O)N(Cc3ccc(Cl)c(N4CCOCC4)c3)C[C@@H]2N1C(=O)NCc1ccccc1 [Compound 140] | 2.7 ± 0.3 |  |
| C#CCN1CC(=O)N2[C@@H](Cc3ccc(O)cc3)C(=O)N(Cc3ccc4c(c3)OCCO4)C[C@@H]2N1C(=O)NCc1ccccc1 [Compound 135] | 2.4 ± 0.7 |  |
| C=CCN1CC(=O)N2[C@@H](CC3(O)C=CC(=O)C=C3)C(=O)N(Cc3ccc(F)cc3F)C[C@@H]2N1C(=O)NCc1ccccc1 [Compound 181] | 6.7 ± 0.6 |  |
| C=CCN1CC(=O)N2[C@@H](Cc3ccc(O)cc3)C(=O)N(Cc3ccc(Cl)c4cccnc34)C[C@@H]2N1C(=O)NCc1ccccc1 [Compound 137] | 0.6 ± 0.1 |  |
| CN1CC(=O)N2[C@@H](Cc3ccc(O)cc3)C(=O)N(Cc3ccc(F)cc3F)[C@@H](CO)[C@@H]2N1C(=O)NCc1ccccc1 [Compound 82] | 68.1 ± 8.9 |  |
